This note sets out measurements from DBAASP.

By MIC is commonly meant the smallest concentration in the dilution series that meets the test's criterion for growth inhibition.

Test systems include Staphylococcus aureus; Pseudomonas aeruginosa; Lactococcus garvieae; Streptococcus iniae; Vibrio alginolyticus; Vibrio harveyi; Vibrio parahaemolyticus.
Common to all, as to assay: ≥ marks a high value that may be exact or a test limit, other limits are often not marked, values filed in µg/mL are converted to µM
Assay [1] relates to Bacillus subtilis ATCC 6633.
Assay [2] deals with Candida albicans ATCC 36232.
Assay [3] deals with Corynebacterium diphtheriae ATCC 8024.
Assay [4] concerns Escherichia coli ATCC 2592.
The test system of assay [5] is Micrococcus luteus ATCC 9341.
The subject of assay [6] is Pseudomonas aeruginosa ATCC 9027.
Assay [7] has as its system Shigella flexneri ATCC 203.
Assay [8] concerns Staphylococcus aureus ATCC 6538.
In assay [9] the test system is Staphylococcus epidermidis ATCC 12228.
Assay [10] relates to Bacillus subtilis IFO 3336.
Assay [11] relates to Escherichia coli IFO 3301.
Assay [12] concerns Staphylococcus aureus KO-4.
Assay [13] concerns Trichophyton mentagrophytes IFO 5466.
The test system of assay [14] is Trypanosoma brucei brucei GUT Tat3.1.
Assay [15] has as its system Bacillus subtilis KCTC 3068.
The subject of assay [16] is Candida albicans KCTC 7965.
Assay [17] deals with Escherichia coli KCTC 1682.
Assay [18] relates to Pseudomonas aeruginosa CCARM 2095.
For assay [19], the system named is Pseudomonas aeruginosa CCARM 2109.
Assay [20] deals with Pseudomonas aeruginosa KCTC 1637.
Assay [21] deals with Salmonella typhimurium KCTC 1926.
Assay [22] relates to Staphylococcus aureus CCARM 3001.
Assay [23] relates to Staphylococcus aureus CCARM 3543.
Assay [24] deals with Staphylococcus aureus KCTC 1621.
In assay [25] the test system is Staphylococcus epidermidis KCTC 1917.
The subject of assay [26] is Enterobacter cloacae BCRC 10401.
The subject of assay [27] is Escherichia coli BCRC 10675.
For assay [28], the system named is Klebsiella aerogenes BCRC 10370.
Assay [29] has as its system Klebsiella oxytoca BCRC 13985.
Assay [30] concerns Listeria monocytogenes BCRC 14845.
For assay [31], the system named is Pseudomonas aeruginosa BCRC 10944.
Assay [32] relates to Staphylococcus aureus BCRC 10780.
Assay [33] concerns Staphylococcus aureus BCRC 10781.
The subject of assay [34] is Staphylococcus xylosus BCRC 12930.
The subject of assay [35] is Streptococcus equinus BCRC 14729.
Assay [36] concerns Vibrio alginolyticus BCRC 12829.
The test system of assay [37] is Vibrio anguillarum serotype O1.
The test system of assay [38] is Vibrio parahaemolyticus BCRC 10806.
The test system of assay [39] is Yersinia enterocolitica BCRC 13999.

≈ marks a conversion by molar mass, not a printed value. A value given as a limit tells only on which side of the number the result lay.

Take `CC(C)C[C@H](NC(=O)[C@@H]1CSSC[C@H](NC(=O)[C@H](C)NC(=O)[C@H](C)NC(=O)[C@@H](N)CC(=O)O)C(=O)N[C@@H](C)C(=O)N[C@@H](C)C(=O)N[C@@H](Cc2cnc[nH]2)C(=O)N1)C(=O)N[C@@H](Cc1ccccc1)C(=O)N[C@@H](CCCN=C(N)N)C(N)=O` [DAACAAHCLFR]: the MIC was not below 84.9 µM in assay [1]; not below 84.9 µM in assay [2]; not below 84.9 µM in assay [3]; not below 84.9 µM in assay [4]; not below 84.9 µM in assay [5]; more than 84.9 µM in assay [6]. The minimum inhibitory concentration (MIC) in assay [7] was not below 84.9 µM; in [8] it was more than 84.9 µM; against Staphylococcus aureus, more than 84.9 µM; in assay [9], more than 84.9 µM.
For `NC(N)=NCCC[C@H](NC(=O)[C@H](Cc1cnc[nH]1)NC(=O)[C@H](CCCN=C(N)N)NC(=O)[C@H](Cc1cnc[nH]1)NC(=O)[C@@H](N)CCCN=C(N)N)C(=O)N[C@@H](Cc1cnc[nH]1)C(=O)O` [RHRHRH], the minimum inhibitory concentration (MIC) in [10] and in assay [11] was not below 111 µM each time.
On to `CC[C@H](C)[C@H](NC(=O)[C@H](CCCN=C(N)N)NC(=O)[C@H](CC(C)C)NC(=O)[C@H](CC(C)C)NC(=O)[C@H](CC(C)C)NC(=O)[C@@H](N)CCCN=C(N)N)C(=O)NCC(=O)N[C@@H](CCCN=C(N)N)C(=O)N[C@@H](CCCN=C(N)N)C(N)=O` [RLLLRIGRR], for which the minimal inhibitory concentration (MIC) against Pseudomonas aeruginosa is 347 µM (≈ 400 µg/mL); in [12] it was not below 521 µM; in [13] it was 13 µM (≈ 15 µg/mL); in assay [14] it was not below 325 µM.
As to `CC(C)C[C@H](NC(=O)[C@H](Cc1c[nH]c2ccccc12)NC(=O)[C@H](CCCNC(=N)N)NC(=O)[C@H](CCCNC(=N)N)NC(=O)[C@H](Cc1c[nH]c2ccccc12)NC(=O)[C@H](CCCNC(=N)N)NC(=O)[C@H](CCCNC(=N)N)NC(=O)[C@H](Cc1c[nH]c2ccccc12)NC(=O)[C@H](CC(C)C)NC(=O)[C@@H](N)CCCNC(=N)N)C(=O)N[C@@H](CCCNC(=N)N)C(=O)O` [RLWRRWRRWLR], the MIC was 4 µM (≈ 6.96 µg/mL) in [15]; not below 64 µM in assay [16]; 8 µM (≈ 13.9 µg/mL) in [17]; 16 µM (≈ 27.8 µg/mL) in [18]; 16 µM (≈ 27.8 µg/mL) in assay [19]; 8 µM (≈ 13.9 µg/mL) in assay [20]. Moreover, the MIC stood at 2 µM (≈ 3.48 µg/mL) in [21]; 8 µM (≈ 13.9 µg/mL) in [22]; 2 µM (≈ 3.48 µg/mL) in assay [23]; 4 µM (≈ 6.96 µg/mL) in assay [24]; 2 µM (≈ 3.48 µg/mL) in assay [25].
As for `CC(C)C[C@H](NC(=O)[C@H](C)NC(=O)[C@H](CC(N)=O)NC(=O)[C@H](C)NC(=O)[C@H](Cc1ccccc1)NC(=O)[C@H](CCCCN)NC(=O)[C@H](CCCCN)NC(=O)[C@H](C)NC(=O)[C@H](CC(C)C)NC(=O)[C@H](CC(N)=O)NC(=O)[C@H](C)NC(=O)[C@H](CC(C)C)NC(=O)[C@H](CCCCN)NC(=O)[C@H](CCCCN)NC(=O)[C@H](C)NC(=O)[C@H](Cc1ccc(O)cc1)NC(=O)[C@H](CC(N)=O)NC(=O)[C@H](Cc1ccc(O)cc1)NC(=O)CN)C(=O)N[C@@H](Cc1c[nH]c2ccccc12)C(=O)O` [GYNYAKKLANLAKKFANALW], the MIC in assay [26] was found to be 3.5 µM (≈ 8 µg/mL); in assay [27], 3.5 µM (≈ 8 µg/mL); in [28], 7 µM (≈ 16 µg/mL); in assay [29], 7 µM (≈ 16 µg/mL); in the assay on Lactococcus garvieae, 14 µM (≈ 32 µg/mL); in assay [30] it was 7 µM (≈ 16 µg/mL). The MIC was 14 µM (≈ 32 µg/mL) in assay [31]; 7 µM (≈ 16 µg/mL) in assay [32]; 14 µM (≈ 32 µg/mL) in assay [33]; 3.5 µM (≈ 8 µg/mL) in [34]; not below 56 µM in [35]; 28 µM (≈ 64 µg/mL) against Streptococcus iniae. The minimal inhibitory concentration (MIC) was not below 56 µM in assay [36]; 1.75 µM (≈ 4 µg/mL) in the assay with Vibrio alginolyticus; 1.75 µM (≈ 4 µg/mL) in assay [37]; 3.5 µM (≈ 8 µg/mL) with Vibrio harveyi; not below 56 µM in assay [38]; 1.75 µM (≈ 4 µg/mL) against Vibrio parahaemolyticus. In [39], the MIC turned out to be 14 µM (≈ 32 µg/mL).
